Consider 16 compounds from patent publication US4219566A, “Phenylglyoxylic acids and derivatives thereof” (Pfizer Inc., priority 1977, dated 1980).

Assay [1] relates to pyruvate oxidation by diaphragm tissue from fat-fed rats. Nature of the assay: Pyruvate oxidation (14C-pyruvate into CO2) by diaphragm tissue from fat-fed rats in vitro. In kind it is cell-based. The conditions noted are these: Rattus norvegicus, read-out: % Stimulation of pyruvate oxidation; for activation at 2000 µM: 2.0 mM compound in medium. On the procedure:
(1) increase the oxidation of glucose and/or pyruvate by isolated rat muscle preparation in vitro;
(1) (a) Diaphragm tissue is obtained from rats fed on a high fat diet similar to `Diet B` described by Zaragoza and Felber (Horm. Metab. Res. 1970, 2, 323). Pyruvate oxidation by such tissue is assessed by measurement of the rate of incorporation of carbon-14 carbon-14-labelled pyruvate into carbon dioxide in vitro, as described by Bringolf (Eur. J. Biochem. 1972, 26, 360). The rate of pyruvate oxidation is depressed by 50-75% compared with that by diaphragm tissue from rats fed on a normal diet. When the compounds of the formula (I) are added to the medium, they are found to stimulate pyruvate oxidation by diaphragm tissue from fat-fed rats in a dose dependent manner.
The degree of stimulation by the compounds of the formula (I) at a concentration of 2.0 mM (unless otherwise stated) is shown in the following Table.

Assay [2] has as its system pyruvate dehydrogenase (PDH). Nature of the assay: Proportion of active pyruvate dehydrogenase (PDHa/PDHt) in hearts of fat-fed rats after dosing in vivo. The note with it: heart of fat-fed rats. On the set-up: species or system rat. On the procedure: (2) increase the proportion of the active form of the enzyme pyruvate dehydrogenase (PDH) in organs of animals (e.g. rats) in vivo; and
The ability of compounds of formula (I) to increase the proportion of the active form of the pyruvate dehydrogenase enzyme may be measured by the following test.
(2) Rats fed on a high fat diet as in test (1) (a), are treated either with placebo or with the compound of formula (I), by subcutaneous or intravenous injection or by oral administration, and at various times after treatment the rat hearts are removed and homogenized, under conditions which minimize changes in the proportion of the pyruvate dehydrogenase enzyme which is present in the active form, as described by Whitehouse and Randle (Biochem. J. 1973, 134, 651). The total amount of the enzyme present (PDHt) and the amount which is present in the active form (PDHa) are assessed by a method similar to that described by Taylor et al (J. Biol. Chem. 1973, 248, 73). The fat-feeding process is found to depress the ratio PDHa/PDHt from a normal value of about 0.7 to a value in the range from 0.05 to 0.2.

Assay [3] relates to fasted, closed-chest, anesthetized beagle dogs. Nature of the assay: Myocardial blood flow and metabolism in electrically paced, anesthetized beagle dogs, with or without isoprenaline. In kind it is in vivo. The conditions noted are these: 0.02 to 0.1 millimole/kg. intravenously; in the presence and absence of isoprenaline. From the text:
(3) reduce oxygen demand and affect the relative utilization of carbohydrate and lipid metabolites by the electrically-paced heart of an anesthetized dog in the presence or absence of an isoprenaline stimulus.
The ability of compounds of formula (I) to reduce oxygen demand and affect the relative utilization of carbohydrate and lipid metabolites in the heart may be assessed by measuring the effect of the compounds on myocardial blood flow and metabolism in fasted, closed-chest, anesthetized beagle dogs, with cardiac catheterization to enable simultaneous sampling of coronary sinus and arterial blood to be carried out. Coronary sinus blood flow is measured by the hydrogen gas clearance technique described by Aukland et al (Circulation Res. 1964, 14, 164). The heart is paced electrically at 155 beats/min. and recordings of hemodynamic parameters (blood pressure, left ventricular pressure and the first derivative of the latter) are made continuously. Control measurements of coronary blood flow are made and samples of blood taken at 40 min. intervals, both in an untreated animal and in the same animal dosed with an infusion of isoprenaline ([…].), which both stimulates cardiac contraction and increases plasma free fatty acid levels. The compound of formula (I) is then administered intravenously and measurements are made and samples taken again, 40 minutes and 90 minutes later. The blood samples from the artery and coronary sinus are analyzed for oxyhemoglobin, pyruvate and free fatty acid (FFA) content, differences between those of the arterial and coronary sinus blood, when multiplied by coronary blood flow, being a measure of oxygen consumption, pyruvate uptake and FFA uptake by the myocardium respectively.

The test system of assay [4] is rats in which diabetes has been induced by treatment with streptozotocin. Nature of the assay: Blood glucose levels in streptozotocin-diabetic rats. The format is in vivo. The conditions noted are these: averages for 8 animals. Here is the method: (4) decrease blood glucose levels in animals made diabetic by chemical lesion of the pancreas.
The ability of compounds of formula (I) to decrease blood glucose levels may be assessed by measuring their effect on blood glucose levels in rats in which diabetes has been induced by treatment with streptozotocin (85 mg./kg.). Four days after such treatment, a number of rats are given 1 millimole/kg. of the compound by intraperitoneal injection and a similar number are given placebo. The doses are repeated after a further 24 hours and 48 hours. Blood samples are taken from a tail vein immediately before each dosage (which is 2 hours after removal of the animals from food) and 1, 2 and 3 hours after the third dose.

Setting [5] is: dose 1.2 mM/kg subcutaneous, 1.5 hours, placebo ratio 0.11-0.24 in the same line.

On to `CCOC(=O)C(=O)c1ccc(O)cc1` [R=OH, R1=H, R2=OC2H5, ethyl p-hydroxyphenylglyoxylate], for which the activation at 2000 µM in assay [1] is 83%.
As to `CCSc1ccc(C(=O)C(=O)O)cc1` [R=SC2H5, R1=H, R2=OH, p-(ethylthio)phenylglyoxylic acid], the activation at 2000 µM in assay [1] was 158%. Also, the “PDHa/PDHt ratio at 1.5 hours (Compound)” value in assay [2] (setting [5]) was found to be 0.73.
With `O=C(O)C(=O)c1ccc(O)cc1` [p-hydroxyphenylglyoxylic acid], in assay [1], the activation at 2000 µM was found to be 104%. In assay [2] (setting [5]), the “PDHa/PDHt ratio at 1.5 hours (Compound)” value is given as 0.28. For the same compound, in assay [3], the “duration of increased myocardial pyruvate uptake after dosing” value is “at least 90 minutes”, the myocardial blood flow result is “increased”, the myocardial oxygen consumption result is listed as “decreased” and the myocardial pyruvate uptake entry is recorded as “increases myocardial pyruvate uptake”. This compound also gave a blood glucose level in assay [4] (3 hours after the third dose, 1 millimole/kg. intraperitoneal, placebo 369±9) of 344±9 mg./100 ml. The blood glucose level in assay [4] (after 2 days of treatment, immediately before third dose, 1 millimole/kg. intraperitoneal daily, baseline 376±6, placebo 383±10) was determined as 358±9 mg./100 ml.
In the case of `CCOc1ccc(C(=O)C(=O)O)cc1` [R=OC2H5, R1=H, R2=OH, p-ethoxyphenylglyoxylic acid], the activation at 2000 µM in assay [1] was found to be 91%. Also, the “PDHa/PDHt ratio at 1.5 hours (Compound)” value in assay [2] (setting [5]) turned out to be 0.56.
On the same counts, the results for `Cc1ccc(C(=O)C(=O)O)cc1` [R=CH3, R1=H, R2=OH, p-methylphenylglyoxylic acid] are 71% and 0.20.
The like results for `COc1ccc(C(=O)C(=O)O)cc1Cl` [R=OCH3, R1=3-Cl, R2=OH, m-chloro-p-methoxyphenylglyoxylic acid] were, in that order, 52% and 0.35.
For `O=C(O)C(=O)c1ccc(O)c(I)c1` [R=OH, R1=3-I, R2=OH, p-hydroxy-m-iodophenylglyoxylic acid], in assay [1], the activation at 2000 µM amounted to 55%.
Consider `CC(C)Sc1ccc(C(=O)C(=O)O)cc1` [R=S . isopropyl, R1=H, R2=OH, p-(isopropylthio)phenylglyoxylic acid], for which the activation at 2000 µM in assay [1] was 200%.
In the case of `CCOC(=O)C(=O)c1ccc(OCC)cc1` [R=OC2H5, R1=H, R2=OC2H5, ethyl p-ethoxyphenylglyoxylate], the “PDHa/PDHt ratio at 1.5 hours (Compound)” value in assay [2] (setting [5]) worked out at 0.35.
On to `CSc1ccc(C(=O)C(=O)O)cc1` [R=SCH3, R1=H, R2=OH, p-(methylthio)phenylglyoxylic acid], for which, in assay [1], the activation at 2000 µM was determined as 123%. For the same compound, the “PDHa/PDHt ratio at 1.5 hours (Compound)” value in assay [2] (first of two doses shown only in drawing 5, subcutaneous, placebo 0.20) amounted to 0.47; in assay [2] (second of two doses shown only in drawing 5, subcutaneous, placebo 0.12), 0.24.
Turning to `CCCCSc1ccc(C(=O)C(=O)O)cc1` [R=S . n-butyl, R1=H, R2=OH, p-(n-butylthio)phenylglyoxylic acid], the activation at 2000 µM in assay [1] is 113%.
As to `CC(C)(C)CSc1ccc(C(=O)C(=O)O)cc1` [R=SCH2 . t-butyl, R1=H, R2=OH], in assay [1], the activation at 2000 µM is 67%.
For the compound `O=C(O)C(=O)c1ccccc1` [R=H, R1=H, R2=OH, phenylglyoxylic acid], in assay [1] (at 1mM), the activation at 1000 µM came to 25%. For the same compound, the “PDHa/PDHt ratio at 1.5 hours (Compound)” value in assay [2] (setting [5]) amounted to 0.38.
As to `COc1ccc(C(=O)C(=O)O)cc1` [R=OCH3, R1=H, R2=OH, p-methoxyphenylglyoxylic acid], the activation at 2000 µM in assay [1] stood at 127%. Further, in assay [2] (setting [5]), the “PDHa/PDHt ratio at 1.5 hours (Compound)” value was determined as 0.49.
On the same counts, the results for `Cc1cc(C(=O)C(=O)O)ccc1O` [R=OH, R1=3-CH3, R2=OH, p-hydroxy-m-methylphenylglyoxylic acid] are 21% and 0.31.
Regarding `O=C(O)C(=O)c1ccc(Cl)cc1` [R=Cl, R1=H, R2=OH, p-chlorophenylglyoxylic acid], the activation at 2000 µM in assay [1] is 71%.
